# Laboratory results published in patent US6552078B2, “6-methoxy-2-naphthylacetic acid prodrugs” (priority 1999, dated 2003).
# What was measured:
# Chemical Hydrolysis = assay type: physicochemical
# [1] = In Vitro Hydrolysis in Rat Plasma; assay type: in vitro ADME
# Rat Paw Edema = experiment: Rat Paw Edema; assay type: in vivo; conditions: Dose (mg/kg): Example 11 80; Example 12 121
half-life (Chemical Hydrolysis; pH 3),half-life (Chemical Hydrolysis; pH 7.4),half-life (Chemical Hydrolysis; pH 8),"metabolised at 2 h ([1]; in ˜2 h, column head pH 3, read-out: In Vitro Hydrolysis in Rat Plasma: conversion to 6-MNA)","half-life ([1]; column head pH 3, read-out: In Vitro Hydrolysis in Rat Plasma: T1/2)",SMILES,Rat Paw Edema % Inhibition (Rat Paw Edema)
> 25 h,22 h,7 h,21%,,"COc1ccc2cc(CC(=O)OCC(C)=O)ccc2c1 [Example 1, (6-methoxy-naphthalen-2-yl)-acetic acid 2-oxo-propyl ester]",
> 300 h,~280 h,~280 h,,> 5 min,"COc1ccc2cc(CC(=O)OCCOCCO[N+](=O)[O-])ccc2c1 [Example 2, (6-Methoxy-naphthalen-2-yl)-acetic acid 2-(2-nitrooxy-ethoxy)-ethyl ester]",
,,,,,"COc1ccc2cc(CC(=O)NO)ccc2c1 [Example 11, N-Hydroxy-2-(6-methoxy-naphthalen-2-yl)-acetamide]",59.6%
